According to the NIST ThermoML archive (doi:10.1016/j.jct.2016.01.001):

Assay: mn = molality of the nth substance listed, in mol/kg
Conditions: 298.15 K, Ring tensiometer

CC(C)Cc1ccc(C(C)C(=O)[O-])cc1.[Na+] (stereo not drawn) [sodium ibuprofen] + O
Conditions | surface tension liquid-gas [mN/m]
m1 = 0.0022 | 62.35
m1 = 0.00438 | 60.76
m1 = 0.00873 | 58.91
m1 = 0.0216 | 54.52
m1 = 0.032 | 51.62
m1 = 0.0423 | 48.38
m1 = 0.0524 | 45.51
m1 = 0.0671 | 42.39
m1 = 0.0815 | 40.24
m1 = 0.1 | 38.27
m1 = 0.118 | 36.11
m1 = 0.135 | 34.85
m1 = 0.16 | 33.01
m1 = 0.183 | 32.02
m1 = 0.206 | 31.74
m1 = 0.227 | 31.72
m1 = 0.247 | 31.73
m1 = 0.267 | 31.72
